{
  "source": "patent US20220017778A1",
  "about": "“Methods of Treating Inorganic Surfaces” (ZYDEX INC., priority 2018, published 2022)",
  "test": "Solubility / dispersibility of the product in water",
  "format": "physicochemical",
  "conditions": "general statement in the description",
  "experimental": "A two liter, three necked flask equipped with a condenser, stirrer, thermometer, and distillation head was charged with (i) 136 grams of methyltrimethoxysilane, (ii) 186 grams of monoehtylene glycol, and (iii) 0.6 grams of tetra isopropyltitanate was added into the mixture to facilitate a transesterification reaction to provide a non-ionic water soluble organosilane. This mixture was heated to 120° C. for two hours, during which 92 grams of methanol were recovered after which the reaction was deemed complete.\nA two liter, three necked flask equipped with a condenser, stirrer, thermometer, and distillation head was charged with (i) 164 grams of methyltrimethoxysilane, (ii) 186 grams of monoehtylene glycol, and (iii) 0.6 grams of tetra isopropyltitanate was added into the mixture to facilitate a transesterification reaction to provide a non-ionic water soluble organosilane. This mixture was heated to 120° C. for two hours, during which 95 grams of methanol were recovered after which the reaction was deemed complete.",
  "data": [
    {"molecule": "CO[Si](C)(OC)OC", "note": "[methyltrimethoxysilane (MTMS), methyltrimethoxysilane]", "values": [
      {"measurement": "water solubility, in words (description)", "result": "insoluble in water"}
    ]}
  ]
}
